# Source: PubChem BioAssay AID806 (SRMLSC, 2007)
# The source made the active and inactive calls. No rule for the calls is given here.
# Test system: virus-infected cells, CPE inhibition, dose response
# Test: PubChem AID 806
# Settings: for EC90: measured here: EC90 CPE inhibition; for CC50: measured here: cytotoxicity, cell viability IC50
SMILES,EC50,EC90 [µM],CC50 [µM]
CCOC(=O)/C=C1\SCC(=O)N1CC(=O)Nc1ccc(OC)c(OC)c1,> 60 µM (inactive),> 60,> 60
CC(C)(C)OC(=O)NCCc1nnc(SCc2c(Cl)cccc2Cl)o1,> 60 µM (inactive),> 60,> 60
CCCCSc1nnc(-c2ccc(C)cc2)o1,> 60 µM (inactive),> 60,> 60
CN(C)CCSc1nnc(-c2ccccc2)o1,> 60 µM (inactive),> 60,> 60
CCN(CC)C(=O)CN1CCN(c2ncccn2)CC1,> 60 µM (inactive),> 60,> 60
COc1ccc(-n2ncc3c(N4CCCc5ccccc54)ncnc32)cc1,> 60 µM (inactive),> 60,> 60
OCC#CCSc1nnc(-c2ccncc2)o1,> 60 µM (inactive),> 60,> 60
CN1c2ccsc2C(O)=C(C(=S)Nc2ccccc2)S1(=O)=O,> 60 µM (inactive),> 60,> 60
COc1ccccc1CNC(=O)c1c(O)c2cc(OC)c(OC)cc2[nH]c1=O,> 60 µM (inactive),> 60,> 60
COc1ccc(-c2nnc(SCC#N)o2)cc1,> 60 µM (inactive),> 60,19.7
O=C1NC2=C(CCc3ccccc32)C(c2ccc(Br)cc2)N1 (stereo not given),4.34 µM,27.2,> 60
O=C(O)CCc1nnc2n(Cc3ccc(F)cc3)c(=O)c3ccccc3n12,> 60 µM (inactive),> 60,> 60
O=C1CC(C(=O)Nc2ccc(Br)cc2)C2(CCCC2)O1 (stereo not given),> 60 µM (inactive),> 60,> 60
CCC1CCCCN1C(=O)Nc1cccc(NC(=O)N2CCCCC2CC)c1 (stereo not given),> 60 µM (inactive),> 60,> 60
O=C1NCCCc2c1oc1ccc(O)cc21,> 60 µM (inactive),> 60,> 60
Cn1nc([N+](=O)[O-])nc1Sc1nnc(-c2ccccc2)o1,> 60 µM (inactive),> 60,> 60
O=Nc1c(O)n(Cc2cccc(Cl)c2)c2ccccc12,> 60 µM (inactive),> 60,> 60
COc1ccc(OC)c(-n2c(SCC(=O)NCc3ccco3)nnc2-c2c[nH]c3ccccc23)c1,> 60 µM (inactive),> 60,> 60
COc1ccc(Cl)cc1NC(=O)CS(=O)(=O)c1cccc2nsnc12,> 60 µM (inactive),> 60,> 60
CC(=O)c1cccc(NC(=O)CCS(=O)(=O)c2cccc3nsnc23)c1,> 60 µM (inactive),> 60,> 60
O=C(Nc1ccc2c(c1)CCC2)c1cc2ccccc2o1,> 60 µM (inactive),> 60,> 60
Cc1nc2nc(-c3ccc(Cl)cc3)[nH]n2c(=O)c1Cc1ccccc1,> 60 µM (inactive),> 60,> 60
O=C(c1cnn2c(C(F)(F)F)cc(-c3ccc(Br)cc3)nc12)N1CCOCC1,> 60 µM (inactive),> 60,> 60

SMILES,EC50,EC90 [µM],CC50 [µM]
O=c1[nH]c2ccccc2n1Cc1ccc(Cl)cc1,> 60 µM (inactive),> 60,> 60
CC(=O)Nc1ccc(Nc2ncnc3c2cnn3-c2ccc(C)cc2C)cc1,> 60 µM (inactive),> 60,> 60
Cc1cc(NC(=O)CSc2nnc(-c3cccnc3)n2C2CCCCC2C)no1 (stereo not given),> 60 µM (inactive),> 60,> 60
COc1ccc(OC)c(NC(=O)c2cc3ccccc3o2)c1,> 60 µM (inactive),> 60,> 60
CCCCN(C(=O)Cn1nnc2ccccc21)C(C(=O)NCCOC)c1ccccc1 (stereo not given),> 60 µM (inactive),> 60,> 60
CCOC(=O)/C=c1\s/c(=C\c2ccccc2OC)c(=O)n1CC(=O)N1CCOCC1,> 60 µM (inactive),> 60,> 60
O=C(COc1ccccc1)Nc1ccc(-c2nnc(-c3ccco3)o2)cc1,52 µM (inactive),> 60,> 60
Cc1c(C(=O)Nc2ccncc2)oc2ccccc12,> 60 µM (inactive),> 60,> 60
O=c1[nH]c2cccnc2n1Cc1ccccc1,> 60 µM (inactive),> 60,> 60
O=C(c1ccc(S(=O)(=O)N2CCOCC2)cc1)N1CCc2ccccc2C1,> 60 µM (inactive),> 60,> 60
CCOC(=O)/C=C1\SCC(=O)N1CC(=O)NC1CCCCC1,> 60 µM (inactive),> 60,> 60
O=C(C1CCCCN1S(=O)(=O)c1ccccc1)N1CCN(Cc2ccccc2)CC1 (stereo not given),> 60 µM (inactive),> 60,> 60
Cc1cccc(-n2ncc3c(Nc4ccc(F)cc4)ncnc32)c1,> 60 µM (inactive),> 60,> 60
CCOc1ccccc1NC(=O)C1CCCCN1S(=O)(=O)c1ccc(F)cc1 (stereo not given),> 60 µM (inactive),> 60,> 60
COc1ccc(NC(=O)C2CC(=O)OC23CCCCC3)cc1 (stereo not given),> 60 µM (inactive),> 60,> 60
COc1cc(OC)c(C2=NOC(C(=O)Nc3cc(C)nn3-c3ccccc3)C2)cc1Cl (stereo not given),> 60 µM (inactive),> 60,> 60
COc1ccc(NS(=O)(=O)c2ccc(OC)c(N(C)S(=O)(=O)c3ccc(Cl)cc3)c2)cc1,–,> 60,22.9
O=C(NCC1CCCO1)C1CCCCN1S(=O)(=O)c1ccc(F)cc1 (stereo not given),> 60 µM (inactive),> 60,> 60
Cc1cc2oc(C(=O)Nc3cccnc3)c(C)c2cc1C,> 60 µM (inactive),> 60,> 60
COC(=O)c1ccc(CN(C(C)=O)c2ccccc2)o1,> 60 µM (inactive),> 60,> 60
CSc1nnc(-c2ccccc2Cl)o1,> 60 µM (inactive),> 60,> 60
COc1ccc(Nc2ncnc3c2cnn3-c2ccccc2)cc1OC,> 60 µM (inactive),> 60,> 60
O=C(CSc1nnc2sc3ccccc3n12)NCc1ccco1,–,> 60,> 60

SMILES,EC50,EC90 [µM],CC50 [µM]
CCSc1nnc([C@H](Cc2ccccc2)NC(=O)OC(C)(C)C)o1,> 60 µM (inactive),> 60,> 60
O=C(NCc1cccs1)c1ccc(N2CCCCC2)nc1,> 60 µM (inactive),> 60,> 60
COCCNC(=O)C(c1ccccc1)N(C(=O)Cn1nnc2ccccc21)c1cccnc1 (stereo not given),> 60 µM (inactive),> 60,> 60
O=C(Nc1cccnc1)c1cc2c(ccc3ccccc32)o1,> 60 µM (inactive),> 60,> 60
N#CCCCSc1nnc(-c2ccccn2)o1,> 60 µM (inactive),> 60,> 60
COCCNC(=O)C(c1ccccc1)N(CCOC)C(=O)Cn1nnc2ccccc21 (stereo not given),> 60 µM (inactive),> 60,> 60
COc1ccc(OC)c(Nc2ncnc3c2cnn3-c2ccccc2)c1,> 60 µM (inactive),> 60,> 60
Cc1ccc(/C=C/C(=O)c2c(C)cc(C)[nH]c2=O)cc1,> 60 µM (inactive),> 60,> 60
CC(C)(C)OC(=O)NCCc1nnc(SCc2ccccc2Cl)o1,> 60 µM (inactive),> 60,> 60
Cc1ccc(NC(=O)C2=C(O)c3sccc3N(C)S2(=O)=O)cc1,> 60 µM (inactive),> 60,> 60
CC1CCN(C(=O)Nc2cccc(NC(=O)N3CCC(C)CC3)c2)CC1,> 60 µM (inactive),> 60,> 60
Cc1cc2cc(CNC(=O)c3ccc(S(=O)(=O)N(C)C)cc3)ccc2n1C,> 60 µM (inactive),> 60,> 60
O=C(Nc1ccc(Cl)cn1)c1cc2ccccc2o1,> 60 µM (inactive),> 60,> 60
Cc1cccc(-n2ncc3c(N4CCc5ccccc54)ncnc32)c1,> 60 µM (inactive),> 60,> 60
COc1ccc(OC)c(-n2c(SCC(N)=O)nnc2-c2c[nH]c3ccccc23)c1,> 60 µM (inactive),> 60,> 60
CCS(=O)(=O)Nc1cccc(-c2nc3cccnc3s2)c1C,> 60 µM (inactive),> 60,> 60
COC(=O)CSc1nnc(-c2ccncc2)o1,> 60 µM (inactive),> 60,> 60
O=C(c1cc(-c2ccc(Cl)cc2)n(-c2ccc(Cl)c(Cl)c2)n1)N1CCOCC1,> 60 µM (inactive),> 60,3.62
COc1ccc(C)cc1NC(=O)C1CC(=O)OC12CCCCC2 (stereo not given),> 60 µM (inactive),> 60,> 60
COc1cccc(C2=NOC(C(=O)Nc3cc(C)nn3-c3ccccc3)C2)c1OC (stereo not given),> 60 µM (inactive),> 60,> 60
Cc1cc(=O)n2c(-c3ccccc3C)n[nH]c2n1,> 60 µM (inactive),> 60,> 60
COCc1cc(=O)n2c(-c3ccccc3OC)n[nH]c2n1,> 60 µM (inactive),> 60,> 60
CCOC(=O)/C=C1\SCC(=O)N1CC(=O)Nc1ccc2c(c1)CCC2,> 60 µM (inactive),> 60,> 60
